Assay results published in patent publication US7018989B2, “Chemical compounds” (University College Cardiff Consultants, LTD, priority 1995, dated 2006).
Like-named read-outs stand apart in the source and are kept apart here.

Key:
HIV-2 [1] = experiment: Inhibition of HIV-2 in CEM cells (giant cell formation); assay type: cell-based; conditions: read-out: HIV2 CEM: EC50 for inhibition of HIV-2 in CEM cells
Experimental: (§1) Cells were infected with HIV-1 as previously described [Balzarini et al. AIDS (1991), 5, 21–28]. Briefly, 5×10^5 cells per milliliter were infected with HIV-1 or HIV-2 at 100 CCID50 (50% cell culture infective dose) per milliliter of cell suspension. Then 100 μL of the infected cell suspension was transferred to microtiter plate wells and mixed with 100 μL of the appropriate dilutions of the test compounds. After 4 days giant cell formation was recorded microscopically in the HIV-infected cell cultures [CEM], and after 5 days the number of viable cells was determined by trypan blue staining of the HIV-infected cell cultures [MT4].
(§2) The data columns are, in order: • HIV1 MT4: EC50 in μM for inhibition of HIV-1 in MT4 cells. • HIV2 MT4: EC50 in μM for inhibition of HIV-2 in MT4 cells. • CC50 MT4: CC50 in μM for toxicity to MT-4 cells. • HIV1 CEM: EC50 in μM for inhibition of HIV-1 in CEM cells. • HIV2 CEM: EC50 in μM for inhibition of HIV-2 in CEM cells. • HIV2 CEM-TK-: EC50 in μM for inhibition of HIV-2 in CEM/TK^− cells. • CC50 CEM: CC50 in μM for toxicity to CEM cells. • EC50 MSV: EC50 in μM for inhibition of MSV • MCC MSV: Minimum cytotoxic concentration in MSV assay

HIV-1 = experiment: microbe, parasite or virus in culture; conditions: read-out: HIV1 CEM: EC50 for inhibition of HIV-1 in CEM cells
Experimental: as §1, §2

CEM cells = experiment: Toxicity to CEM cells; assay type: cell-based, human
Experimental: as §1, §2

HIV-2 [2] = experiment: Inhibition of HIV-2 in CEM/TK- cells; assay type: cell-based
Experimental: as §1, §2

[3] = Minimum cytotoxic concentration in MSV assay; assay type: cell-based
Text: as §2, with “CEM/TK^-” for “CEM/TK^−”, “[…]:” for “MSV • MCC MSV:”

MSV = experiment: Inhibition of MSV (in vitro); assay type: cell-based, Moloney Sarcoma Virus
Text: as §2

[4] = CEM/TK- cells, HIV-2, read-out: HIV2 CEM-TK-: EC50 for inhibition of HIV-2 in CEM/TK- cells
[5] = Table 6, mean of two or more repeat experiments
[6] = Table 6, mean of two or more repeat experiments, read-out: HIV2 CEM-TK-: EC50 for inhibition of HIV-2 in CEM/TK^− cells

Row | Structure (SMILES) | EC50 (HIV-2 [1]; CEM cells, HIV-2) [µM] | EC50 (HIV-1; CEM cells, HIV-1) [µM] | CC50 (CEM cells; CEM cells) [µM] | EC50 (HIV-2 [1]; [5]) [µM] | EC50 (HIV-1; [5]) [µM] | CC50 (CEM cells; [5]) [µM] | EC50 (HIV-2 [2]; [6]) [µM] | further results
1 | COC(=O)C(C)NP(=O)(OC)OCC1OC(n2cc(C)c(=O)[nH]c2=O)CC1N=[N+]=[N-] (stereo not shown) [Cpd 739] | 18 | 10 | > 250 |  |  |  |  | EC50 (HIV-2 [2]; [4]): > 250 µM
2 | COC(=O)C(Cc1ccccc1)NP(=O)(OCC1OC(n2cc(C)c(=O)[nH]c2=O)CC1N=[N+]=[N-])Oc1ccccc1 (stereo not shown) [Cpd 941] | > 50 | > 50 | 115 |  |  |  |  | MCC MSV: Minimum cytotoxic concentration in MSV assay ([3]; MSV assay): >100; EC50 (MSV; MSV): > 100 µM
3 | COC(=O)C(C)NP(=O)(OCC1OC(n2cc(C)c(=O)[nH]c2=O)CC1N=[N+]=[N-])Oc1ccc(Br)cc1Br (stereo not shown) [Cpd 777] | 0.55 | 0.5 | 55 |  |  |  |  | EC50 (HIV-2 [2]; [4]): 0.19 µM
4 | CCCCNP(=O)(OCC1C=CC(n2cc(C)c(=O)[nH]c2=O)O1)Oc1ccccc1 (stereo not shown) [Compound 840] |  |  |  | 100 | 140 | > 250 | 125 | 
5 | CCCCO[PH](=O)OCC1C=CC(n2cc(C)c(=O)[nH]c2=O)O1 (stereo not shown) [Compound 790] |  |  |  | 0.9 | 0.65 | 177 | 30 | 
6 | CCCCCCOP(=O)(O)OCC1OC(n2cc(C)c(=O)[nH]c2=O)CC1N=[N+]=[N-] (stereo not shown) [Cpd 857] | 10 | 5 | > 250 |  |  |  |  | EC50 (HIV-2 [2]; [4]): > 250 µM
7 | CCCCCCCCNP(=O)(OCC1C=CC(n2cc(C)c(=O)[nH]c2=O)O1)Oc1ccccc1 (stereo not shown) [Compound 829] |  |  |  | ≥ 10 | > 10 | 23 |  | 
8 | CCCCCCO[PH](=O)OCC1C=CC(n2cc(C)c(=O)[nH]c2=O)O1 (stereo not shown) [Compound 786] |  |  |  | 0.5 | 0.6 | 150 | 30 | 
9 | Cc1cn(C2CC(N=[N+]=[N-])C(COP(=O)(O)NC(C)C(=O)O)O2)c(=O)[nH]c1=O (stereo not shown) [Cpd 1071] | 10 | 115 | > 250 |  |  |  |  | MCC MSV: Minimum cytotoxic concentration in MSV assay ([3]; MSV assay): >100; EC50 (MSV; MSV): > 250 µM; EC50 (HIV-2 [2]; [4]): 250 µM
10 | COC(=O)[C@@H](C)NP(=O)(OCC1C=CC(n2cc(C)c(=O)[nH]c2=O)O1)Oc1ccccc1 (stereo partly shown) [Compound 932] |  |  |  | 2 | 3 | > 250 | 2.5 | MCC MSV: Minimum cytotoxic concentration in MSV assay ([3]; Table 6): >100; EC50 (MSV; Table 6): ≥ 100 µM
11 | CCCCCCCCCCO[PH](=O)OCC1C=CC(n2cc(C)c(=O)[nH]c2=O)O1 (stereo not shown) [Compound 789] |  |  |  | 0.65 |  | 64 | 40 | 
12 | Cc1cn(C2C=CC(COP(=O)(Oc3ccccc3)N3CCCC3C(=O)OCc3ccccc3)O2)c(=O)[nH]c1=O (stereo not shown) [Compound 933] |  |  |  | 12.5 | 35 | 92 | > 50 | MCC MSV: Minimum cytotoxic concentration in MSV assay ([3]; Table 6): >100; EC50 (MSV; Table 6): > 100 µM
13 | CCCCCCCCO[PH](=O)OCC1C=CC(n2cc(C)c(=O)[nH]c2=O)O1 (stereo not shown) [Compound 791] |  |  |  | 0.6 | 0.4 | 90 | 23 | 
14 | CCOC(=O)CCNP(=O)(OCC1C=CC(n2cc(C)c(=O)[nH]c2=O)O1)Oc1ccccc1 (stereo not shown) [Compound 950] |  |  |  | ≥ 250 | 250 | > 250 | > 250 | MCC MSV: Minimum cytotoxic concentration in MSV assay ([3]; Table 6): >100; EC50 (MSV; Table 6): > 100 µM
15 | CCCCCCOP(=O)(OCCC#N)OCC1OC(n2cc(C)c(=O)[nH]c2=O)CC1N=[N+]=[N-] (stereo not shown) [Cpd 856] | 25 | 13 | > 250 |  |  |  |  | EC50 (HIV-2 [2]; [4]): > 250 µM
16 | CO[PH](=O)OCC1C=CC(n2cc(C)c(=O)[nH]c2=O)O1 (stereo not shown) [Compound 817] |  |  |  | 0.55 | 0.7 | 146 | 20 | 
17 | Cc1cn([C@H]2C=C[C@@H](COP(=O)(O)O)O2)c(=O)[nH]c1=O [Compound 775] |  |  |  | 0.95 | 0.8 | 174 | 33 | 
18 | CCOC(=O)C(C)NP(=O)(OCC1C=CC(n2cc(C)c(=O)[nH]c2=O)O1)Oc1ccccc1 (stereo not shown) [Compound 951] |  |  |  | 0.07 | 0.1 | 55 |  | MCC MSV: Minimum cytotoxic concentration in MSV assay ([3]; Table 6): >100; EC50 (MSV; Table 6): 25 µM

Row | Structure (SMILES) | EC50 (HIV-2 [1]; CEM cells, HIV-2) [µM] | EC50 (HIV-1; CEM cells, HIV-1) [µM] | CC50 (CEM cells; CEM cells) [µM] | EC50 (HIV-2 [1]; [5]) [µM] | EC50 (HIV-1; [5]) [µM] | CC50 (CEM cells; [5]) [µM] | EC50 (HIV-2 [2]; [6]) [µM] | further results
19 | Cc1cn(C2CC(N=[N+]=[N-])C(COP(=O)(OCCC#N)OCC(F)(F)F)O2)c(=O)[nH]c1=O (stereo not shown) [Cpd 847] | 9 | 12 | > 250 |  |  |  |  | EC50 (HIV-2 [2]; [4]): > 250 µM
20 | COC(=O)C(C)NP(=O)(OCC1OC(n2cc(C)c(=O)[nH]c2=O)CC1N=[N+]=[N-])Oc1c(F)c(F)c(F)c(F)c1F (stereo not shown) [Cpd 780] | 33 | 23 | 106 |  |  |  |  | EC50 (HIV-2 [2]; [4]): 100 µM
21 | Cc1cn(C2CC(N=[N+]=[N-])C(COP(=O)(O)OCC(F)(F)F)O2)c(=O)[nH]c1=O (stereo not shown) [Cpd 855] | 17.5 | 17.5 | > 250 |  |  |  |  | EC50 (HIV-2 [2]; [4]): > 250 µM
22 | Cc1cn(C2C=CC(COP(=O)(Oc3ccccc3)Oc3ccccc3)O2)c(=O)[nH]c1=O (stereo not shown) [Compound 880] |  |  |  | 25 |  | ≥ 250 | 75 | 
23 | CCCCCCCCn1c(=O)c(C)cn(C2CC(N=[N+]=[N-])C(COP(=O)(NC(C)C(=O)OC)Oc3ccccc3)O2)c1=O (stereo not shown) [Cpd 774] | > 10 | > 10 | 15 |  |  |  |  | 
24 | CC(NP(=O)(OCC1C=CC(n2ccc(=O)[nH]c2=O)O1)Oc1ccccc1)C(=O)OCc1ccccc1 (stereo not shown) [Compound 849] |  |  |  | 15 | 23 | 115 | 10 | 
25 | CCCCCCCCCCCCNP(=O)(OCC1C=CC(n2cc(C)c(=O)[nH]c2=O)O1)Oc1ccccc1 (stereo not shown) [Compound 828] |  |  |  | > 10 | > 10 | 14 |  | 
26 | Cc1cn(C2CC(N=[N+]=[N-])C(COP(=O)(OCCC#N)Oc3ccccc3)O2)c(=O)[nH]c1=O (stereo not shown) [Cpd 846] | 14 | 13 | > 250 |  |  |  |  | EC50 (HIV-2 [2]; [4]): > 250 µM
27 | COCCOCCO[PH](=O)OCC1C=CC(n2cc(C)c(=O)[nH]c2=O)O1 (stereo not shown) [Compound 787] |  |  |  | 0.95 | 0.65 | 144 | 45 | 
28 | CCO[PH](=O)OCC1C=CC(n2cc(C)c(=O)[nH]c2=O)O1 (stereo not shown) [Compound 788] |  |  |  | 0.6 | 0.65 | 115 | 30 | 
29 | Cc1cn(C2C=CC(COP(=O)(OCCC#N)Oc3ccccc3)O2)c(=O)[nH]c1=O (stereo not shown) [Compound 861] |  |  |  | 0.95 | 1.2 | ≥ 250 | 17.5 | 
30 | COC(=O)C1CCCN1P(=O)(OCC1C=CC(n2cc(C)c(=O)[nH]c2=O)O1)Oc1ccccc1 (stereo not shown) [Compound 879] |  |  |  | > 10 | > 10 | 42.5 | > 10 | 
31 | Cc1cn([C@H]2C=C[C@@H](COP(=O)(O)NCC(=O)O)O2)c(=O)[nH]c1=O [Compound 1163, 2′,3′-dideoxy-2′,3′-didehydrothymidine 5′-(glycinyl phosphate)] |  |  |  | 5 | 2 | > 250 | 130 | 
32 | CCCNP(=O)(OCC1C=CC(n2cc(C)c(=O)[nH]c2=O)O1)Oc1ccccc1 (stereo not shown) [Compound 858] |  |  |  | > 250 | > 250 | > 250 | > 250 | 
33 | CCCCCCNP(=O)(OCC1C=CC(n2cc(C)c(=O)[nH]c2=O)O1)Oc1ccccc1 (stereo not shown) [Compound 859] |  |  |  | > 50 | > 50 | 145 | > 50 | 
34 | Cc1cn(C2C=CC(COP(=O)(O)Oc3ccccc3)O2)c(=O)[nH]c1=O (stereo not shown) [Compound 853] |  |  |  | 0.7 | 0.65 | 153 | 23 | 
35 | CCCCCCOP(=O)(OCCCCCC)OCC1C=CC(n2cc(C)c(=O)[nH]c2=O)O1 (stereo not shown) [Compound 321] |  |  |  | > 42 | > 42 | 36 | > 42 | 
36 | CCCNP(=O)(OCC1C=CC(n2cc(C)c(=O)[nH]c2=O)O1)OCC(Cl)(Cl)Cl (stereo not shown) [Compound 401] |  |  |  | > 210 | > 210 |  | > 210 | 
